# From ChEMBL document CHEMBL3272271, “Folate antagonists. 13. 2,4-Diamino-6-](alpha,alpha,alpha-trifluoro-m-tolyl)thio]quinazoline and related 2,4-diamino-6-[(phenyl- and naphthyl)thio]quinazolines, a unique class of antimetabolites with extraordinary antimalarial and antibacterial effects” (J Med Chem, 1978)
# Activity calls are given as the source filed them. No cut-off for these calls is given here.
# Experiments:
# [1] = test system: Enterococcus faecalis; experiment: Antibacterial activity against Streptococcus faecalis MGH-2 by gradient plate test; type: functional
# [2] = test system: Staphylococcus aureus; experiment: Antibacterial activity against Staphylococcus aureus UC-96 by gradient plate test; type: functional
# [3] = test system: Staphylococcus aureus; experiment: Antibacterial activity against drug-resistant Staphylococcus aureus S18713 by gradient plate test; type: functional
# [4] = test system: Pseudomonas aeruginosa; experiment: Antibacterial activity against Pseudomonas aeruginosa 28 by gradient plate test; type: functional
# [5] = test system: Escherichia coli; experiment: Antibacterial activity against Escherichia coli Vogel by gradient plate test; type: functional
# [6] = test system: Shigella sonnei; experiment: Antibacterial activity against Shigella sonnei C-10 by gradient plate test; type: functional
# [7] = test system: Plasmodium gallinaceum; experiment: Antimalarial activity against sporozoite-induced Plasmodium gallinaceum infected in white leghorn chicken assessed as disease cure from parasite infection at 480 mg/kg, sc administered 72 hrs after infection; type: functional, organism-based; design: dose 480 mg/kg
# [8] = test system: Plasmodium gallinaceum; experiment: Antimalarial activity against sporozoite-induced Plasmodium gallinaceum infected in white leghorn chicken assessed as disease cure from parasite infection at 240 mg/kg, sc administered 72 hrs after infection; type: functional, organism-based; design: dose 240 mg/kg
# [9] = test system: Plasmodium gallinaceum; experiment: Antimalarial activity against sporozoite-induced Plasmodium gallinaceum infected in white leghorn chicken assessed as disease cure from parasite infection at 120 mg/kg, sc administered 72 hrs after infection; type: functional, organism-based; design: dose 120 mg/kg
# [10] = test system: Plasmodium gallinaceum; experiment: Antimalarial activity against sporozoite-induced Plasmodium gallinaceum infected in white leghorn chicken assessed as disease cure from parasite infection at 60 mg/kg, sc administered 72 hrs after infection; type: functional, organism-based; design: dose 60 mg/kg
# [11] = test system: Plasmodium gallinaceum; experiment: Antimalarial activity against sporozoite-induced Plasmodium gallinaceum infected in white leghorn chicken assessed as disease cure from parasite infection at 30 mg/kg, sc administered 72 hrs after infection; type: functional, organism-based; design: dose 30 mg/kg
# [12] = test system: Plasmodium gallinaceum; experiment: Antimalarial activity against sporozoite-induced Plasmodium gallinaceum infected in white leghorn chicken assessed as disease cure from parasite infection at 15 mg/kg, sc administered 72 hrs after infection; type: functional, organism-based; design: dose 15 mg/kg
# [13] = test system: Plasmodium berghei; experiment: Antimalarial activity against Plasmodium berghei infected in mouse assessed as increase in mean survival days of host at 20 mg/kg, sc administered 72 hrs after infection relative to control; type: functional; details: route subcutaneous
# [14] = test system: Plasmodium berghei; experiment: Antimalarial activity against Plasmodium berghei infected in mouse assessed as increase in mean survival days of host at 10 mg/kg, sc administered 72 hrs after infection relative to control; type: functional; details: route subcutaneous
# [15] = test system: Plasmodium gallinaceum; experiment: Antimalarial activity against sporozoite-induced Plasmodium gallinaceum infected in white leghorn chicken assessed as disease cure from parasite infection at 7.5 mg/kg, sc administered 72 hrs after infection; type: functional, organism-based; design: dose 7.5 mg/kg
# [16] = test system: Plasmodium berghei; experiment: Antimalarial activity against chloroquine-resistant Plasmodium berghei assessed as drug resistance; type: functional, organism-based
# [17] = test system: Plasmodium berghei; experiment: Antimalarial activity against cycloguanil-resistant Plasmodium berghei assessed as drug resistance; type: functional, organism-based
# [18] = test system: Plasmodium berghei; experiment: Antimalarial activity against Plasmodium berghei infected in mouse assessed as increase in mean survival days of host at 5 mg/kg, sc administered 72 hrs after infection relative to control; type: functional; details: route subcutaneous
# [19] = test system: Plasmodium berghei; experiment: Antimalarial activity against Plasmodium berghei infected in mouse assessed as increase in mean survival days of host at 2.5 mg/kg, sc administered 72 hrs after infection relative to control; type: functional; details: route subcutaneous
# [20] = test system: Plasmodium berghei; experiment: Antimalarial activity against Plasmodium berghei infected in mouse assessed as increase in mean survival days of host at 1.25 mg/kg, sc administered 72 hrs after infection relative to control; type: functional; details: route subcutaneous
# [21] = test system: Plasmodium berghei; experiment: Antimalarial activity against Plasmodium berghei infected in mouse assessed as disease cure from parasite infection at 640 mg/kg, sc administered 72 hrs after infection; type: functional, organism-based; design: dose 640 mg/kg
# [22] = test system: Plasmodium berghei; experiment: Antimalarial activity against Plasmodium berghei infected in mouse assessed as disease cure from parasite infection at 320 mg/kg, sc administered 72 hrs after infection; type: functional, organism-based; design: dose 320 mg/kg
# [23] = test system: Plasmodium berghei; experiment: Antimalarial activity against Plasmodium berghei infected in mouse assessed as disease cure from parasite infection at 160 mg/kg, sc administered 72 hrs after infection; type: functional, organism-based; design: dose 160 mg/kg
# [24] = test system: Plasmodium berghei; experiment: Antimalarial activity against Plasmodium berghei infected in mouse assessed as disease cure from parasite infection at 80 mg/kg, sc administered 72 hrs after infection; type: functional, organism-based; design: dose 80 mg/kg
# [25] = test system: Plasmodium berghei; experiment: Antimalarial activity against Plasmodium berghei infected in mouse assessed as disease cure from parasite infection at 40 mg/kg, sc administered 72 hrs after infection; type: functional, organism-based; design: dose 40 mg/kg
# [26] = test system: Plasmodium berghei; experiment: Antimalarial activity against Plasmodium berghei infected in mouse assessed as disease cure from parasite infection at 20 mg/kg, sc administered 72 hrs after infection; type: functional, organism-based; design: dose 20 mg/kg
# [27] = test system: Plasmodium berghei; experiment: Antimalarial activity against Plasmodium berghei infected in mouse assessed as disease cure from parasite infection at 10 mg/kg, sc administered 72 hrs after infection; type: functional, organism-based; design: dose 10 mg/kg
# [28] = test system: Plasmodium berghei; experiment: Antimalarial activity against trophozoite-induced Plasmodium berghei infected in mouse assessed as daily dose required to suppression of 90% parasite infection administered with diet for 6 days; type: functional
# [29] = test system: Plasmodium berghei; experiment: Ratio of quinine hydrochloride SD90 to compound SD90 for trophozoite-induced Plasmodium berghei infected in mouse assessed as daily dose required to suppression of 90% parasite infection administered with diet for 6 days; type: functional
# [30] = test system: Plasmodium gallinaceum; experiment: Antimalarial activity against trophozoite-induced Plasmodium gallinaceum infected in white leghorn chicken assessed as increase in mean survival days of host at 40 mg/kg, sc administered 72 hrs after infection relative to control; type: functional; details: route subcutaneous
# [31] = test system: Plasmodium gallinaceum; experiment: Antimalarial activity against trophozoite-induced Plasmodium gallinaceum infected in white leghorn chicken assessed as increase in mean survival days of host at 20 mg/kg, sc administered 72 hrs after infection relative to control; type: functional; details: route subcutaneous
# [32] = test system: Plasmodium gallinaceum; experiment: Antimalarial activity against trophozoite-induced Plasmodium gallinaceum infected in white leghorn chicken assessed as increase in mean survival days of host at 10 mg/kg, sc administered 72 hrs after infection relative to control; type: functional; details: route subcutaneous
# [33] = test system: Plasmodium gallinaceum; experiment: Antimalarial activity against trophozoite-induced Plasmodium gallinaceum infected in white leghorn chicken assessed as increase in mean survival days of host at 5 mg/kg, sc administered 72 hrs after infection relative to control; type: functional; details: route subcutaneous
# [34] = test system: Plasmodium gallinaceum; experiment: Antimalarial activity against trophozoite-induced Plasmodium gallinaceum infected in white leghorn chicken assessed as increase in mean survival days of host at 2.5 mg/kg, sc administered 72 hrs after infection relative to control; type: functional; details: route subcutaneous
# [35] = test system: Plasmodium gallinaceum; experiment: Antimalarial activity against trophozoite-induced Plasmodium gallinaceum infected in white leghorn chicken assessed as increase in mean survival days of host at 1.25 mg/kg, sc administered 72 hrs after infection relative to control; type: functional; details: route subcutaneous
# [36] = test system: Plasmodium gallinaceum; experiment: Antimalarial activity against sporozoite-induced Plasmodium gallinaceum infected in white leghorn chicken assessed as disease cure from parasite infection at 320 mg/kg, sc administered 72 hrs after infection; type: functional, organism-based; design: dose 320 mg/kg
# [37] = test system: Gallus gallus; experiment: Toxicity in sporozoite-induced Plasmodium gallinaceum infected white leghorn chicken assessed as mortality at 320 mg/kg, sc administered 72 hrs after infection measured up to 6 days; type: organism-based; design: dose 320 mg/kg, route subcutaneous; details: in vivo
# [38] = test system: Plasmodium gallinaceum; experiment: Antimalarial activity against sporozoite-induced Plasmodium gallinaceum infected in white leghorn chicken assessed as disease cure from parasite infection at 160 mg/kg, sc administered 72 hrs after infection; type: functional, organism-based; design: dose 160 mg/kg
# [39] = test system: Plasmodium gallinaceum; experiment: Antimalarial activity against sporozoite-induced Plasmodium gallinaceum infected in white leghorn chicken assessed as disease cure from parasite infection at 80 mg/kg, sc administered 72 hrs after infection; type: functional, organism-based; design: dose 80 mg/kg
# [40] = test system: Plasmodium gallinaceum; experiment: Antimalarial activity against sporozoite-induced Plasmodium gallinaceum infected in white leghorn chicken assessed as disease cure from parasite infection at 40 mg/kg, sc administered 72 hrs after infection; type: functional, organism-based; design: dose 40 mg/kg
# [41] = test system: Plasmodium gallinaceum; experiment: Antimalarial activity against sporozoite-induced Plasmodium gallinaceum infected in white leghorn chicken assessed as disease cure from parasite infection at 20 mg/kg, sc administered 72 hrs after infection; type: functional, organism-based; design: dose 20 mg/kg
# [42] = test system: Plasmodium gallinaceum; experiment: Antimalarial activity against sporozoite-induced Plasmodium gallinaceum infected in white leghorn chicken assessed as disease cure from parasite infection at 10 mg/kg, sc administered 72 hrs after infection; type: functional, organism-based; design: dose 10 mg/kg
# [43] = test system: Mus musculus; experiment: Toxicity in Plasmodium berghei infected mouse assessed as mortality at 320 mg/kg, sc administered 72 hrs after infection measured after 2 to 5 days; type: organism-based; design: dose 320 mg/kg, route subcutaneous; details: in vivo
# [44] = test system: Mus musculus; experiment: Toxicity in Plasmodium berghei infected mouse assessed as mortality at 640 mg/kg, sc administered 72 hrs after infection measured after 2 to 5 days; type: organism-based; design: dose 640 mg/kg, route subcutaneous; details: in vivo
structure (smiles),measurement,setting,value
Nc1nc(N)c2cc(Sc3ccc(Br)cc3)ccc2n1,MIC,[1],< 0.25 µg/mL
same,MIC,[2],< 0.25 µg/mL
same,MIC,[3],< 0.25 µg/mL
same,MIC,[4],> 25 µg/mL
same,MIC,[5],1 µg/mL
same,MIC,[6],2 µg/mL
same,Activity,[7],Active
same,Activity,[8],Active
same,Activity,[9],Active
same,Activity,[10],Active
same,Activity,[11],Active
same,Activity,[12],Active
same,MST,[13],14.4 days
same,MST,[14],19.6 days
same,Activity,[15],Active
same,Activity,[16],inactive
same,Activity,[17],Active
same,MST,[18],6.7 days
same,MST,[19],3.6 days
same,MST,[20],2.2 days
same,Activity,[21],Active
same,Activity,[22],Active
same,Activity,[23],Active
same,Activity,[24],Active
same,Activity,[25],Active
same,Activity,[26],Active
same,Activity,[27],Active
same,SD90,[28],1.2 mg/kg/day
same,Ratio,[29],62
same,MST,[30],12.8 days
same,MST,[31],11.8 days
same,MST,[32],8.2 days
same,MST,[33],7.2 days
same,MST,[34],6 days
same,MST,[35],3 days
CCc1nc(N)nc(N)c1-c1ccc(Cl)cc1 [PYRIMETHAMINE],Activity,[36],Active
same,Activity,[37],Toxic
same,Activity,[38],Active
same,Activity,[39],Active
same,Activity,[40],Active
same,Activity,[41],Active
same,Activity,[42],Active
same,MST,[13],7.7 days
same,MST,[14],6.1 days
same,MST,[18],5.3 days
same,MST,[19],4.7 days
same,MST,[20],3.1 days
same,Activity,[21],Active
same,Activity,[22],Active
same,Activity,[23],Active
same,Activity,[24],Active
same,Activity,[25],Active
same,Activity,[43],Toxic
same,Activity,[44],Toxic
same,SD90,[28],0.28 mg/kg/day
same,Ratio,[29],270
